Assay results taken from PubChem BioAssay (NCI).
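Following 48 hours of exposure in 96-well plates, responses at five concentrations were used to interpolate endpoints linearly. Abbreviation: GI50, concentration required for 50% inhibition of growth. TGI is the concentration that stops growth completely.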

Assays:
Assay in all cases: NCI tumour cell line growth inhibition, 48 h
786-0 renal = test system: 786-0 renal
A498 renal = test system: A498 renal
A549 NSCLC = test system: A549 NSCLC
ACHN renal = test system: ACHN renal
BT-549 breast = test system: BT-549 breast
CAKI-1 renal = test system: CAKI-1 renal
CCRF-CEM leukemia = test system: CCRF-CEM leukemia
COLO 205 colon = test system: COLO 205 colon
DU-145 prostate = test system: DU-145 prostate
EKVX NSCLC = test system: EKVX NSCLC
HCC-2998 colon = test system: HCC-2998 colon
HCT-116 colon = test system: HCT-116 colon
HCT-15 colon = test system: HCT-15 colon
HL-60(TB) leukemia = test system: HL-60(TB) leukemia
HOP-62 NSCLC = test system: HOP-62 NSCLC
HOP-92 NSCLC = test system: HOP-92 NSCLC
HS 578T breast = test system: HS 578T breast
HT29 colon = test system: HT29 colon
IGROV1 ovarian = test system: IGROV1 ovarian
K-562 leukemia = test system: K-562 leukemia
KM12 colon = test system: KM12 colon
LOX IMVI melanoma = test system: LOX IMVI melanoma
M14 melanoma = test system: M14 melanoma
MALME-3M melanoma = test system: MALME-3M melanoma
MCF7 breast = test system: MCF7 breast
MDA-MB-231 breast = test system: MDA-MB-231 breast
MDA-MB-435 = test system: MDA-MB-435
MDA-MB-468 breast = test system: MDA-MB-468 breast
MOLT-4 leukemia = test system: MOLT-4 leukemia
NCI-H226 lung = test system: NCI-H226 lung
NCI-H23 lung = test system: NCI-H23 lung
NCI-H460 lung = test system: NCI-H460 lung
NCI-H522 lung = test system: NCI-H522 lung
OVCAR-3 ovarian = test system: OVCAR-3 ovarian
OVCAR-4 ovarian = test system: OVCAR-4 ovarian
OVCAR-5 ovarian = test system: OVCAR-5 ovarian
OVCAR-8 ovarian = test system: OVCAR-8 ovarian
PC-3 prostate = test system: PC-3 prostate
RPMI-8226 leukemia = test system: RPMI-8226 leukemia
RXF 393 renal = test system: RXF 393 renal
SF-268 CNS = test system: SF-268 CNS
SF-295 CNS = test system: SF-295 CNS
SF-539 CNS = test system: SF-539 CNS
SK-MEL-2 melanoma = test system: SK-MEL-2 melanoma
SK-MEL-28 melanoma = test system: SK-MEL-28 melanoma
SK-MEL-5 melanoma = test system: SK-MEL-5 melanoma
SK-OV-3 ovarian = test system: SK-OV-3 ovarian
SN12C renal = test system: SN12C renal
SNB-19 CNS = test system: SNB-19 CNS
SNB-75 CNS = test system: SNB-75 CNS
SR leukemia = test system: SR leukemia
SW-620 colon = test system: SW-620 colon
T-47D breast = test system: T-47D breast
TK-10 renal = test system: TK-10 renal
U251 CNS = test system: U251 CNS
UACC-257 melanoma = test system: UACC-257 melanoma
UACC-62 melanoma = test system: UACC-62 melanoma
UO-31 renal = test system: UO-31 renal

Structure (SMILES): O=C(/C=C/c1ccco1)c1nc2ccccc2n1Cc1ccc(Br)cc1
- GI50 (786-0 renal): 21.3 µM
- TGI (786-0 renal): 76.4 µM
- GI50 (A498 renal): 28.7 µM
- TGI (A498 renal): 65.3 µM
- GI50 (A549 NSCLC): 21.2 µM
- TGI (A549 NSCLC): > 100 µM
- GI50 (ACHN renal): 22 µM
- TGI (ACHN renal): 69.1 µM
- GI50 (BT-549 breast): 13.8 µM
- TGI (BT-549 breast): 35.7 µM
- GI50 (CAKI-1 renal): 14 µM
- TGI (CAKI-1 renal): > 100 µM
- GI50 (CCRF-CEM leukemia): 12.3 µM
- TGI (CCRF-CEM leukemia): > 100 µM
- GI50 (COLO 205 colon): 17.6 µM
- TGI (COLO 205 colon): 34.1 µM
- GI50 (DU-145 prostate): 21 µM
- TGI (DU-145 prostate): > 100 µM
- GI50 (EKVX NSCLC): 26.2 µM
- TGI (EKVX NSCLC): > 100 µM
- GI50 (HCC-2998 colon): 14.9 µM
- TGI (HCC-2998 colon): 28.8 µM
- GI50 (HCT-116 colon): 15 µM
- TGI (HCT-116 colon): 61.7 µM
- GI50 (HCT-15 colon): 6.96 µM
- TGI (HCT-15 colon): 23.2 µM
- GI50 (HL-60(TB) leukemia): 12.7 µM
- TGI (HL-60(TB) leukemia): > 100 µM
- GI50 (HOP-62 NSCLC): 19.7 µM
- TGI (HOP-62 NSCLC): 49.2 µM
- GI50 (HOP-92 NSCLC): 5.77 µM
- TGI (HOP-92 NSCLC): 33.5 µM
- GI50 (HS 578T breast): 30.4 µM
- TGI (HS 578T breast): > 100 µM
- GI50 (HT29 colon): 31.1 µM
- TGI (HT29 colon): > 100 µM
- GI50 (IGROV1 ovarian): 15.6 µM
- TGI (IGROV1 ovarian): 63.7 µM
- GI50 (K-562 leukemia): 10.6 µM
- TGI (K-562 leukemia): > 100 µM
- GI50 (KM12 colon): 12.5 µM
- TGI (KM12 colon): 34.3 µM
- GI50 (LOX IMVI melanoma): 12.2 µM
- TGI (LOX IMVI melanoma): 27.3 µM
- GI50 (M14 melanoma): 18.9 µM
- TGI (M14 melanoma): 38.3 µM
- GI50 (MALME-3M melanoma): 16 µM
- TGI (MALME-3M melanoma): 33.9 µM
- GI50 (MCF7 breast): 2.9 µM
- TGI (MCF7 breast): > 100 µM
- GI50 (MDA-MB-231 breast): 14 µM
- TGI (MDA-MB-231 breast): 34.6 µM
- GI50 (MDA-MB-435): 15 µM
- TGI (MDA-MB-435): 36.9 µM
- GI50 (MDA-MB-468 breast): 7.31 µM
- TGI (MDA-MB-468 breast): 26.9 µM
- GI50 (MOLT-4 leukemia): 6.57 µM
- TGI (MOLT-4 leukemia): > 100 µM
- GI50 (NCI-H226 lung): 19.3 µM
- TGI (NCI-H226 lung): 53 µM
- GI50 (NCI-H23 lung): 13.7 µM
- TGI (NCI-H23 lung): 42.3 µM
- GI50 (NCI-H460 lung): 15.2 µM
- TGI (NCI-H460 lung): 38.1 µM
- GI50 (NCI-H522 lung): 15.6 µM
- TGI (NCI-H522 lung): 38.9 µM
- GI50 (OVCAR-3 ovarian): 8.02 µM
- TGI (OVCAR-3 ovarian): 30.4 µM
- GI50 (OVCAR-4 ovarian): 23.6 µM
- TGI (OVCAR-4 ovarian): > 100 µM
- GI50 (OVCAR-5 ovarian): 17.9 µM
- TGI (OVCAR-5 ovarian): 38.1 µM
- GI50 (OVCAR-8 ovarian): 16.6 µM
- TGI (OVCAR-8 ovarian): 39.7 µM
- GI50 (PC-3 prostate): 23.9 µM
- TGI (PC-3 prostate): > 100 µM
- GI50 (RPMI-8226 leukemia): 15.8 µM
- TGI (RPMI-8226 leukemia): > 100 µM
- GI50 (RXF 393 renal): 9.57 µM
- TGI (RXF 393 renal): 22.1 µM
- GI50 (SF-268 CNS): 27.2 µM
- TGI (SF-268 CNS): > 100 µM
- GI50 (SF-295 CNS): 16.7 µM
- TGI (SF-295 CNS): 42.1 µM
- GI50 (SF-539 CNS): 17.8 µM
- TGI (SF-539 CNS): 35 µM
- GI50 (SK-MEL-2 melanoma): 16.3 µM
- TGI (SK-MEL-2 melanoma): 35.7 µM
- GI50 (SK-MEL-28 melanoma): 15.6 µM
- TGI (SK-MEL-28 melanoma): 32.1 µM
- GI50 (SK-MEL-5 melanoma): 14.1 µM
- TGI (SK-MEL-5 melanoma): 28 µM
- GI50 (SK-OV-3 ovarian): 34.5 µM
- TGI (SK-OV-3 ovarian): > 100 µM
- GI50 (SN12C renal): 19.9 µM
- TGI (SN12C renal): 52.5 µM
- GI50 (SNB-19 CNS): 14.4 µM
- TGI (SNB-19 CNS): 34.7 µM
- GI50 (SNB-75 CNS): 13 µM
- TGI (SNB-75 CNS): > 100 µM
- GI50 (SR leukemia): 9.23 µM
- TGI (SR leukemia): > 100 µM
- GI50 (SW-620 colon): 12.1 µM
- TGI (SW-620 colon): 48.4 µM
- GI50 (T-47D breast): 6.12 µM
- TGI (T-47D breast): > 100 µM
- GI50 (TK-10 renal): 32.8 µM
- TGI (TK-10 renal): > 100 µM
- GI50 (U251 CNS): 12 µM
- TGI (U251 CNS): 26.8 µM
- GI50 (UACC-257 melanoma): 17.4 µM
- TGI (UACC-257 melanoma): 68.4 µM
- GI50 (UACC-62 melanoma): 10.8 µM
- TGI (UACC-62 melanoma): 26.2 µM
- GI50 (UO-31 renal): 11 µM
- TGI (UO-31 renal): 26.4 µM
